In patent publication US9365522B2, “Pyrazole amide derivative” (AMGEN INC., priority 2015, dated 2016):

Target: T1, human RORγ-LBD (Homo sapiens, UniProt P51449)
T1 construct: made in house; host or cells: E. coli (BL-21)
T1 sequence (P51449 262-518): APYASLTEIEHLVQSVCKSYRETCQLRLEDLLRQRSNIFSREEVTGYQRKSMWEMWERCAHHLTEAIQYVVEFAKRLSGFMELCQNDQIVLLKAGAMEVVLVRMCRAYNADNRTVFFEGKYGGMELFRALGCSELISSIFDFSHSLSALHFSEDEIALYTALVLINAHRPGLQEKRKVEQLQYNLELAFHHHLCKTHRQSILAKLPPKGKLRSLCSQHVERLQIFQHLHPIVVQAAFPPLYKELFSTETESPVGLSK
Assay: ROR gamma coactivator peptide recruitment Alphascreen assay (RORγ-LBD binding to GRIP1 coactivator peptide)
Format: biochemical
Details: 5 nM human RORγ-LBD, 30 nM 7-β-hydroxycholesterol, 50 nM biotinylated GRIP1 coactivator peptide, overnight incubation at room temperature; read-out: result (pIC50, RORγ coactivator peptide recruitment Alphascreen assay) (converted)
Outline: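 Alphascreen proximity read-out after overnight room-temperature incubation, yielding pIC50 from 1-in-2 compound series (2.5% DMSO final). Mixture: 50 nM biotin-GRIP1 peptide, 30 nM 7-β-hydroxycholesterol agonist, 5 nM recombinant 6×His:Flag human RORγ-LBD (aa 262-518), 50 mM HEPES pH 7.4.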

Compound	IC50
C[C@]1(C(=O)O)CC[C@H](n2ncc(C(=O)N(CC(=O)c3c(Cl)cncc3Cl)C[C@@H]3CC3(F)F)c2C(F)(F)F)CC1 [Example 818, trans-4-(4-((2-(3,5-dichloro-4-pyridinyl)-2-oxoethyl)(((1S)-2,2-difluorocyclopropyl)methyl)carbamoyl)-5-(trifluoromethyl)-1H-pyrazol-1-yl)-1-methylcyclohexanecarboxylic acid]	7.24 nM
C[C@]1(C(=O)O)CC[C@H](n2ncc(C(=O)N(CC(=O)c3c(Cl)cncc3Cl)C[C@H]3CC3(F)F)c2C(F)(F)F)CC1 [Example 819, trans-4-(4-((2-(3,5-dichloro-4-pyridinyl)-2-oxoethyl)(((1R)-2,2-difluorocyclopropyl)methyl)carbamoyl)-5-(trifluoromethyl)-1H-pyrazol-1-yl)-1-methylcyclohexanecarboxylic acid]	50.1 nM
C[C@@H]1C[C@@H](n2ncc(C(=O)N(CC(=O)c3c(Cl)cncc3Cl)C[C@H]3CCCO3)c2C(F)(F)F)CC[C@@H]1C(=O)O [Example 820, (1S,2R,4S)-4-(4-((2-(3,5-dichloro-4-pyridinyl)-2-oxoethyl)((2R)-tetrahydro-2-furanylmethyl)carbamoyl)-5-(trifluoromethyl)-1H-pyrazol-1-yl)-2-methylcyclohexanecarboxylic acid]	100 nM
CC1(C)CC[C@H](CN(CC(=O)c2c(Cl)cccc2Cl)C(=O)c2cnn([C@H]3CC[C@](C)(C(=O)O)CC3)c2C(F)(F)F)O1 [Example 821, trans-4-(4-((2-(2,6-dichlorophenyl)-2-oxoethyl)(((2R)-5,5-dimethyltetrahydro-2-furanyl)methyl)carbamoyl)-5-(trifluoromethyl)-1H-pyrazol-1-yl)-1-methylcyclohexanecarboxylic acid]	9.77 nM
CC1(CN(CC(=O)c2c(Cl)cncc2Cl)C(=O)c2cnn([C@@H]3CC[C@@H](C(=O)O)C(C)(C)C3)c2C(F)(F)F)CCC1 [Example 824, (1R,4R)-4-(4-((2-(3,5-dichloro-4-pyridinyl)-2-oxoethyl)((1-methylcyclobutyl)methyl)carbamoyl)-5-(trifluoromethyl)-1H-pyrazol-1-yl)-2,2-dimethylcyclohexanecarboxylic acid]	28.8 nM
CC1(CN(CC(=O)c2c(Cl)cncc2Cl)C(=O)c2cnn([C@H]3CC[C@H](C(=O)O)C(C)(C)C3)c2C(F)(F)F)CCC1 [Example 825, (1S,4S)-4-(4-((2-(3,5-dichloro-4-pyridinyl)-2-oxoethyl)((1-methylcyclobutyl)methyl)carbamoyl)-5-(trifluoromethyl)-1H-pyrazol-1-yl)-2,2-dimethylcyclohexanecarboxylic acid]	1.38 nM
C[C@@H]1C[C@@H](n2ncc(C(=O)N(CC(=O)c3c(Cl)cncc3Cl)C[C@H]3CCC(C)(C)O3)c2C(F)(F)F)CC[C@@H]1C(=O)O [Example 826, (1S,2R,4S)-4-(4-((2-(3,5-dichloro-4-pyridinyl)-2-oxoethyl)(((2R)-5,5-dimethyltetrahydro-2-furanyl)methyl)carbamoyl)-5-(trifluoromethyl)-1H-pyrazol-1-yl)-2-methylcyclohexanecarboxylic acid]	18.6 nM
C[C@@H]1C[C@@H](n2ncc(C(=O)N(CC(=O)c3c(Cl)cncc3Cl)CC(C)(C)F)c2C(F)(F)F)CC[C@@H]1C(=O)O [Example 829, (1S,2R,4S)-4-(4-((2-(3,5-dichloro-4-pyridinyl)-2-oxoethyl)(2-fluoro-2-methylpropyl)carbamoyl)-5-(trifluoromethyl)-1H-pyrazol-1-yl)-2-methylcyclohexanecarboxylic acid]	9.55 nM
C[C@@H]1C[C@@H](n2ncc(C(=O)N(CC(=O)c3c(Cl)cncc3Cl)CC3(C(F)(F)F)CC3)c2C(F)(F)F)CC[C@@H]1C(=O)O [Example 830, (1S,2R,4S)-4-(4-((2-(3,5-dichloro-4-pyridinyl)-2-oxoethyl)((1-(trifluoromethyl)cyclopropyl)methyl)carbamoyl)-5-(trifluoromethyl)-1H-pyrazol-1-yl)-2-methylcyclohexanecarboxylic acid]	2.69 nM
C[C@@H]1C[C@@H](n2ncc(C(=O)N(CC(=O)c3c(Cl)cccc3Cl)CC(C)(C)F)c2C(F)(F)F)CC[C@@H]1C(=O)O [Example 831, (1S,2R,4S)-4-(4-((2-(2,6-dichlorophenyl)-2-oxoethyl)(2-fluoro-2-methylpropyl)carbamoyl)-5-(trifluoromethyl)-1H-pyrazol-1-yl)-2-methylcyclohexanecarboxylic acid]	2.63 nM
CC(C)(F)CN(CC(=O)c1c(Cl)cccc1Cl)C(=O)c1cnn([C@H]2CC[C@](C)(C(=O)O)CC2)c1C(F)(F)F [Example 832, trans-4-(4-((2-(2,6-dichlorophenyl)-2-oxoethyl)(2-fluoro-2-methylpropyl)carbamoyl)-5-(trifluoromethyl)-1H-pyrazol-1-yl)-1-methylcyclohexanecarboxylic acid]	3.89 nM
Cc1cc(Cl)c(C(=O)CN(CC2CCC(C)(C)CC2)C(=O)c2cnn([C@H]3CC[C@@H](C(=O)O)CC3)c2C(F)(F)F)c(Cl)n1 [Example 833, cis-4-(4-((2-(2,4-dichloro-6-methyl-3-pyridinyl)-2-oxoethyl)((4,4-dimethylcyclohexyl)methyl)carbamoyl)-5-(trifluoromethyl)-1H-pyrazol-1-yl)cyclohexanecarboxylic acid]	5.89 nM
Cc1cc(Cl)c(C(=O)CN(CC2CCCCC2)C(=O)c2cnn([C@H]3CC[C@@H](C(=O)O)CC3)c2C(F)(F)F)c(Cl)n1 [Example 834, cis-4-(4-((cyclohexylmethyl)(2-(2,4-dichloro-6-methyl-3-pyridinyl)-2-oxoethyl)carbamoyl)-5-(trifluoromethyl)-1H-pyrazol-1-yl)cyclohexanecarboxylic acid]	10 nM
Cc1cc(Cl)c(C(=O)CN(CC2CCC(C)(C)CC2)C(=O)c2cnn([C@H]3CC[C@](C)(C(=O)O)CC3)c2C(F)(F)F)c(Cl)n1 [Example 835, trans-4-(4-((2-(2,4-dichloro-6-methyl-3-pyridinyl)-2-oxoethyl)((4,4-dimethylcyclohexyl)methyl)carbamoyl)-5-(trifluoromethyl)-1H-pyrazol-1-yl)-1-methylcyclohexanecarboxylic acid]	251 nM
CC(C)(C)CN(CC(=O)c1c(Cl)cncc1Cl)C(=O)c1cnn([C@H]2C[C@]3(C[C@H](C(=O)O)C3)C2)c1C(F)(F)F (some centres unmarked) [Example 836, (4R/S)-6-(4-((2-(3,5-dichloro-4-pyridinyl)-2-oxoethyl)(2,2-dimethylpropyl)carbamoyl)-5-(trifluoromethyl)-1H-pyrazol-1-yl)spiro[3.3]heptane-2-carboxylic acid]	30.9 nM
CC1(C)CC[C@@H](CN(CC(=O)c2c(Cl)cccc2Cl)C(=O)c2cnn([C@H]3CC[C@](C)(C(=O)O)CC3)c2C(F)(F)F)O1 [Example 838, trans-4-(4-((2-(2,6-dichlorophenyl)-2-oxoethyl)(((2S)-5,5-dimethyltetrahydro-2-furanyl)methyl)carbamoyl)-5-(trifluoromethyl)-1H-pyrazol-1-yl)-1-methylcyclohexanecarboxylic acid]	13.8 nM
CC1(C)CC[C@H](CN(CC(=O)c2c(Cl)cccc2Cl)C(=O)c2cnn([C@H]3CC[C@](C)(C(=O)O)CC3)c2C(F)(F)F)O1 [Example 839, trans-4-(4-((2-(2,6-dichlorophenyl)-2-oxoethyl)(((2S)-5,5-dimethyltetrahydro-2-furanyl)methyl)carbamoyl)-5-(trifluoromethyl)-1H-pyrazol-1-yl)-1-methylcyclohexanecarboxylic acid]	7.24 nM
